Data on four compounds can be found in US6930092B1, “Antibiotic agents” (priority 1999, dated 2005).

Read-outs that look alike come from different tables or passages of the source.

Data set [1] in a line: Degradation of 5-deB in Britton-Robinson buffer followed by 1D 1H NMR. Type of data set: physicochemical. The settings on record: apparent pH 2.5, 55° C., 5 hr. From the text: The deuteriation effects at C8 as in erythromycin B were observed but there was no change elsewhere.
The format of data set [2] is physicochemical. The protocol:
The suspected intermediate, eBee was prepared and then was added into a partially degraded erythromycin B, the mixture of partially degraded erythromycin B, and the pure eBee solution were compared. […] However, the involvement of eBee as the intermediate in the degradation of erythromycin B was clearly observed in the degradation experiment of eBee.
At present, there is no mechanism of degradation of erythromycin B which has been proposed. An experiment was designed to distinguish whether eBee is degraded to 5-deB via erythromycin B or not. Britton-Robinson buffers, 40 mM of pH2 and 7 were prepared and aliquoted into eppendorf tubes. Just before the experiment started, erythromycin B was dissolved in 20 ul of dimethyl-d6 sulfoxide (99.9 atom % D, Sigma, St Louis, USA) and then was transferred immediately into the buffer and 1D^1H NMR spectra were recorded at 37° C. The typical spectra at 0, 10 and 20 min are depicted in FIGS. 19, 20 and 21, respectively.
After 10 min, the amount of eBee was reduced to almost 40%, but 5-deB was still undetectable. After 20 min, 5-deB appeared in the spectrum, characterised by its H13 at δ5.38, whilst eBee became insignificant in the spectrum.
A similar experiment was repeated by using buffer at pH 7, and 1D^1H spectra were recorded at 37° C. The spectrum of eBee after 0 and 60 min of incubation are depicted in FIGS. 22 and 23, respectively. […] There was trace of erythromycin B but no eBee was detected in the spectra.

The conditions of data set [3]: cited from earlier work.

For 5-desosaminyl erythronolide B [5-deB], the further degradation entry in data set [1] is “does not degrade further”.
Consider `CC[C@H]1OC(=O)[C@H](C)[C@@H](O[C@H]2C[C@@](C)(OC)[C@@H](O)[C@H](C)O2)[C@H](C)[C@@H](O[C@@H]2O[C@H](C)C[C@H](N(C)C)[C@H]2O)C2(C)CC(C)=C(O2)[C@H](C)[C@@H](O)[C@H]1C` (stereo partly shown) [eBee, erythromycin B enol ether], for which, in data set [2] (Britton-Robinson buffer pH 2, 37° C., after 20 min), the “amount of eBee in the spectrum” value is “insignificant”. The “amount of eBee remaining” value in data set [2] (buffer, 10 min, pH 2) is around 40%. The degradation entry is on record as “rapidly degraded to erythromycin B” in data set [2] (pH 2.5) and “not degraded at least for 80 min” in data set [2] (pH 7).
For `CC[C@H]1OC(=O)[C@H](C)[C@@H](O[C@H]2C[C@@](C)(OC)[C@@H](O)[C@H](C)O2)[C@H](C)[C@@H](O[C@@H]2O[C@H](C)C[C@H](N(C)C)[C@H]2O)[C@](C)(O)C[C@@H](C)C(=O)[C@H](C)[C@@H](O)[C@]1(C)O` [erythromycin A], the “time in which degraded to completeness” value in data set [3] (50 mM acetate buffer pH 4.6, 60° C.) is at most 3 h. In addition, in data set [3] (50 mM formate buffer pH 4, 37° C.), the “time in which decomposed almost completely” value is at most 4 h. Moreover, the degradation entry in data set [3] (pH 3.5, 35° C.) is listed as “degraded substantially even before the first spectrum was recorded”.
For the compound `CC[C@H]1OC(=O)[C@H](C)[C@@H](O[C@H]2C[C@@](C)(OC)[C@@H](O)[C@H](C)O2)[C@H](C)[C@@H](O[C@@H]2O[C@H](C)C[C@H](N(C)C)[C@H]2O)[C@](C)(O)C[C@@H](C)C(=O)[C@H](C)[C@@H](O)[C@H]1C` [erythromycin B, Erythromycin B], the “time in which decomposition was completed” value (pH 2.5, depending on the temperature used) is 6 to 12 h. Also, the degradation entry (pH 4.6) is reported as “degradation occurred very slowly”.
